These results are taken from the NIST ThermoML archive (doi:10.1016/j.fluid.2007.11.002).

“And” between values parts separate entries of the source, which are not always exact repeats. Equal values may be shown once. Numbers after ± are expanded uncertainties.

For data set [1] the following is noted: Liquid, Ebulliometric method (Recirculating still).
Data set [2] in a line: refractive index (Na D-line) (dimensionless). The following applies: 298.15 K; 101.33 kPa; Liquid; Standard Abbe refractometry.

For the compound `CC(C)(C)O` [2-methylpropan-2-ol], the “vapor or sublimation pressure” value in data set [1] (323.15 K) is 24.4 ± 0.48 kPa; in data set [1] (325.05 K) it was 26.66 kPa; in data set [1] (333.15 K) it was 39.06 ± 0.62 kPa; in data set [1] (340.05 K), 53.33 kPa; in data set [1] (343.15 K) it was 60.93 ± 0.89 kPa; in data set [1] (349.75 K) it was 79.99 kPa. The results for the “vapor or sublimation pressure” value in data set [1] (353.15 K) and in data set [1] (355.55 K) were 92.26 ± 1.2 kPa and 101.33 kPa, respectively. Moreover, the Normal boiling temperature in data set [1] turned out to be 82.40 ± 0.22 °C. Further, in data set [2], the refractive index was 1.3823 ± 0.0012.

`CC(C)CO` [2-methyl-1-propanol]: the “vapor or sublimation pressure” value in data set [1] (333.15 K) was 12.5 ± 0.34 kPa; in data set [1] (343.15 K), 20.35 ± 0.4 kPa; in data set [1] (353.15 K), 32.25 ± 0.55 kPa and 32.19 ± 0.5 kPa. For the same compound, the Normal boiling temperature in data set [1] worked out at 107.90 ± 0.22 °C. Moreover, the refractive index in data set [2] came to 1.3939 ± 0.0012.

For the compound `CCC(C)O` (stereo not given) [butan-2-ol], the entries for the “vapor or sublimation pressure” value in data set [1] (343.15 K) and in data set [1] (363.15 K) were 29.86 ± 0.59 kPa and 70.25 ± 0.9 kPa, respectively. Also, in data set [1], the Normal boiling temperature was determined as 99.50 ± 0.22 °C. The refractive index in data set [2] is 1.3955 ± 0.0012.

Take `C1COCCO1` [1,4-dioxane]: the “vapor or sublimation pressure” value in data set [1] (323.15 K) was 15.93 ± 0.36 kPa; in data set [1] (333.15 K), 23.94 ± 0.44 kPa and 24 ± 0.42 kPa; in data set [1] (335.85 K), 26.66 ± 0.44 kPa; in data set [1] (343.15 K) it was 35.19 ± 0.59 kPa and 35.11 ± 0.54 kPa and 35.2 ± 0.54 kPa; in data set [1] (353.15 K) it was 50.78 ± 0.8 kPa and 50.41 ± 0.68 kPa and 50.53 ± 0.68 kPa; in data set [1] (354.65 K), 53.33 ± 0.8 kPa. The “vapor or sublimation pressure” value in data set [1] (363.15 K) was 70.91 ± 0.88 kPa; in data set [1] (366.95 K) it was 79.99 ± 1 kPa; in data set [1] (374.45 K), 101.33 ± 1.1 kPa. For the same compound, the Normal boiling temperature in data set [1] is 101.30 ± 0.22 °C. Besides, in data set [2], the refractive index came out at 1.4205 ± 0.0012.

One may read the vapor or sublimation pressure as the equilibrium pressure above the liquid or solid. The refractive index is the speed of light in vacuum divided by its phase velocity in the sample.
